Some test systems named below: HCT-116 colon; ACHN renal; HT29 colon; NCI-H460 lung; NCI/ADR-RES ovarian; KM12 colon; SR leukemia; SF-295 CNS; 786-0 renal; A498 renal.
What all share (experiment): DTP human tumour cell line panel, 48 h

We go through twelve compounds from PubChem BioAssay (NCI).

Molecules are shown by their SMILES.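 Exposure lasted 48 hours, with cells grown in 96-well plates and compounds tested at five concentrations. At the GI50, growth is halved. TGI is the concentration that stops growth completely.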

Regarding `C=C1C(=O)OC2CC3(C)CCCC(C)C3=CC12` (stereo not drawn), the TGI (in general, the concentration at which net growth stops) is 15.5 µM with HCT-116 colon; 10.4 µM with ACHN renal; 14.2 µM in the assay with HT29 colon; 13.7 µM with NCI-H460 lung; 56.7 µM in the assay on NCI/ADR-RES ovarian; 25.1 µM with KM12 colon. The TGI in the assay with SR leukemia is 7.04 µM; in the assay on SF-295 CNS it was 26.3 µM; in the assay on 786-0 renal it was 11.6 µM; in the assay with A498 renal it was 18.7 µM.

With `CC[C@]12C=CCN3CC[C@@]4(c5ccc(OC)cc5N(C)[C@H]4[C@@](O)(C(=O)OC)[C@@H]1OC(=O)CCC(=O)N[C@H](Cc1c[nH]c4ccccc14)C(=O)OC)[C@@H]32`, the GI50 – broadly, the concentration that inhibits growth by half – in the assay on HCT-116 colon is 3.02 µM; in the assay on ACHN renal, 13.4 µM; with HT29 colon, 3.11 µM; with NCI-H460 lung it was 14.8 µM; in the assay on NCI/ADR-RES ovarian it was 11.3 µM; in the assay with KM12 colon it was 10.1 µM. The GI50 in the assay on SR leukemia was 3.55 µM; in the assay on SF-295 CNS it was 15.8 µM; in the assay on 786-0 renal it was 3.08 µM; in the assay with A498 renal, 9.29 µM. Further, the TGI in the assay on HCT-116 colon is greater than 100 µM; with ACHN renal, 52.7 µM; in the assay on HT29 colon, 14.4 µM; with NCI-H460 lung, 32.8 µM; in the assay with NCI/ADR-RES ovarian, 37.8 µM; in the assay with KM12 colon, 36 µM. In addition, the TGI was greater than 100 µM in the assay with SR leukemia, 39.5 µM with SF-295 CNS, greater than 100 µM in the assay on 786-0 renal and 30.8 µM with A498 renal.

Regarding `Cc1cc(NNC(=O)c2ccccc2O)nc(Nc2nc3ccccc3o2)n1`, the GI50 with HCT-116 colon was 1.06 µM; in the assay on ACHN renal, 1.02 µM; with HT29 colon, 3.31 µM; in the assay on NCI-H460 lung, 0.422 µM; with NCI/ADR-RES ovarian it was 1.3 µM; in the assay on KM12 colon, 1.01 µM. Besides, the GI50 is 0.602 µM with SR leukemia, 0.846 µM with SF-295 CNS, 1.8 µM in the assay with 786-0 renal and 1.53 µM in the assay with A498 renal. For the same compound, the TGI in the assay on HCT-116 colon stood at 7.47 µM; with ACHN renal, 12.2 µM; with HT29 colon, 15.4 µM; in the assay on NCI-H460 lung, 6.77 µM; in the assay with NCI/ADR-RES ovarian, 7 µM; in the assay on KM12 colon, 35.2 µM. The TGI turned out to be 7.31 µM in the assay on SR leukemia, 14.4 µM in the assay on SF-295 CNS, 7.98 µM with 786-0 renal and 3.25 µM in the assay with A498 renal.

As to `C=C1CCC2C3(C)COC(c4ccc(Cl)cc4)OC3CCC2(C)C1/C=C/C1=CCOC1=O` (stereo not drawn), the GI50 in the assay on HCT-116 colon was 2.54 µM; with ACHN renal, 12.1 µM; in the assay on HT29 colon, 5.52 µM; with NCI-H460 lung, 4.42 µM; with NCI/ADR-RES ovarian, 4.98 µM; in the assay with KM12 colon it was 9.19 µM. Besides, the GI50 is 1.37 µM in the assay on SR leukemia, 1.83 µM with SF-295 CNS, 29.8 µM with 786-0 renal and 2.18 µM in the assay on A498 renal. In addition, the TGI with HCT-116 colon is greater than 100 µM; in the assay with ACHN renal, 50.9 µM; with HT29 colon, greater than 100 µM; in the assay on NCI-H460 lung it was greater than 100 µM; with NCI/ADR-RES ovarian, greater than 100 µM; in the assay on KM12 colon, greater than 100 µM. In addition, the TGI with SR leukemia was greater than 100 µM; in the assay on SF-295 CNS it was 22.5 µM; in the assay on 786-0 renal, greater than 100 µM; in the assay on A498 renal, 31.5 µM.

`CC1CCc2c(c(CC3CC(=O)NC(=O)C3)nn2-c2ccccc2)C1` (stereo not drawn): the TGI in the assay on HCT-116 colon, in the assay with ACHN renal, in the assay on HT29 colon, in the assay with NCI-H460 lung, in the assay on NCI/ADR-RES ovarian and in the assay with KM12 colon was greater than 100 µM each time. Moreover, the concentration for total growth inhibition (TGI) with SR leukemia, in the assay with SF-295 CNS, in the assay with 786-0 renal and in the assay with A498 renal was greater than 100 µM in each case.

Take `O=C(Cn1c(C(=O)c2ccccc2)nc2ccccc21)c1ccc(F)cc1`: the GI50 in the assay on HCT-116 colon was 3.28 µM; with ACHN renal, greater than 59.7 µM; with HT29 colon, 3.51 µM; with NCI-H460 lung, 12 µM; with NCI/ADR-RES ovarian it was 3.47 µM; in the assay on KM12 colon, 2.48 µM. The GI50 with SR leukemia is 1.21 µM; with SF-295 CNS it was 9.44 µM; in the assay with 786-0 renal it was 20.8 µM; with A498 renal, 4.86 µM. Moreover, the TGI in the assay with HCT-116 colon is greater than 100 µM; in the assay on ACHN renal, greater than 100 µM; with HT29 colon, greater than 100 µM; with NCI-H460 lung, greater than 76 µM; in the assay on NCI/ADR-RES ovarian, greater than 29.4 µM; in the assay with KM12 colon it was greater than 100 µM. Also, the TGI with SF-295 CNS was greater than 100 µM; in the assay on 786-0 renal it was greater than 100 µM; with A498 renal it was greater than 43.7 µM.

Regarding `COc1ccc2c(c1)N(CCO)C1=C(C(=O)OC1)C2c1ccccc1` (stereo not drawn), the GI50 in the assay on HCT-116 colon was 1.97 µM; with ACHN renal it was 3.78 µM; with HT29 colon, 1.77 µM; in the assay with NCI-H460 lung it was 1.77 µM; with NCI/ADR-RES ovarian it was 0.992 µM; in the assay with KM12 colon it was 1.48 µM. The GI50 with SR leukemia was 1.69 µM; with SF-295 CNS it was 0.888 µM; with 786-0 renal, 2.7 µM; in the assay with A498 renal, 0.841 µM. Further, the TGI in the assay with HCT-116 colon was 15.6 µM; with ACHN renal, greater than 50 µM; in the assay with HT29 colon, 5.73 µM; in the assay on NCI-H460 lung, 12.5 µM; in the assay with NCI/ADR-RES ovarian, 2.66 µM; in the assay on KM12 colon, 12 µM. In addition, the TGI in the assay on SR leukemia is greater than 50 µM; in the assay with SF-295 CNS, 2.73 µM; in the assay with 786-0 renal, greater than 50 µM; in the assay with A498 renal, 3.11 µM.

As for `CC1=NN(C(=O)c2ccncc2)C(=O)C1N=Nc1ccc2ccccc2c1` (stereo not drawn), the TGI with HCT-116 colon, in the assay with ACHN renal, in the assay on HT29 colon, in the assay on NCI-H460 lung, in the assay on NCI/ADR-RES ovarian and in the assay on KM12 colon was greater than 100 µM in each case. Besides, the TGI in the assay on SR leukemia was greater than 31.7 µM; in the assay on SF-295 CNS it was greater than 100 µM; in the assay with 786-0 renal, greater than 100 µM; with A498 renal, greater than 100 µM.

In the case of `CC(=O)NC(CCCCN(Cc1ccccc1)C(=O)N(CCCl)N=O)C(=O)NCc1ccccc1` (stereo not drawn), the TGI in the assay on HCT-116 colon was greater than 62.6 µM; in the assay with ACHN renal, 41 µM; with HT29 colon, greater than 72.4 µM; in the assay on NCI-H460 lung, 42.9 µM; in the assay with NCI/ADR-RES ovarian, 34.3 µM; in the assay with KM12 colon, 63.7 µM. In addition, the TGI is 47.6 µM with SR leukemia, 43.4 µM in the assay with SF-295 CNS, 24.9 µM with 786-0 renal and greater than 100 µM in the assay on A498 renal.

Take `COc1cc(-c2ccc(NC(=O)NC3CC3)c(OC)c2)ccc1NC(=O)NC1CC1`: the GI50 in the assay on HCT-116 colon is 3.22 µM; in the assay on ACHN renal it was 7.05 µM; in the assay with HT29 colon, 5.81 µM; in the assay with NCI-H460 lung it was 1.51 µM; in the assay with NCI/ADR-RES ovarian, greater than 43.6 µM; with KM12 colon, 5.28 µM. Further, the GI50 was 0.446 µM in the assay with SR leukemia, 4.36 µM with SF-295 CNS, 29.5 µM in the assay with 786-0 renal and 19.2 µM with A498 renal. The TGI was greater than 100 µM in the assay with HCT-116 colon; greater than 100 µM in the assay on ACHN renal; greater than 100 µM with HT29 colon; 15.7 µM in the assay with NCI-H460 lung; greater than 100 µM in the assay on NCI/ADR-RES ovarian; greater than 100 µM with KM12 colon. For the same compound, the TGI with SF-295 CNS, with 786-0 renal and in the assay on A498 renal was greater than 100 µM each time.

`Cc1cn2c(/C=C3/C(=O)Nc4ccc(F)cc43)c(C)nc2s1`: the GI50 was 2.92 µM in the assay with HCT-116 colon; 17.2 µM with ACHN renal; 1.68 µM with HT29 colon; 2.4 µM in the assay on NCI-H460 lung; 1.7 µM with NCI/ADR-RES ovarian; 2.34 µM in the assay with KM12 colon. For the same compound, the GI50 in the assay with SR leukemia is 1.67 µM; in the assay with SF-295 CNS it was 3.76 µM; with 786-0 renal, 14.4 µM; with A498 renal, 9.59 µM. The TGI in the assay on HCT-116 colon was greater than 50 µM; in the assay with ACHN renal, greater than 50 µM; with HT29 colon, 14.9 µM; in the assay on NCI-H460 lung it was greater than 50 µM; in the assay with NCI/ADR-RES ovarian it was 7.26 µM; in the assay on KM12 colon, greater than 50 µM. Moreover, the TGI with SR leukemia is 5.14 µM; in the assay with SF-295 CNS, 34.6 µM; in the assay with 786-0 renal, greater than 50 µM; with A498 renal, 25.8 µM.

For `CCc1nc2cc(/C=C/C(=O)NO)ccc2c(=O)n1CCc1ccc(F)cc1`, the GI50 in the assay on HCT-116 colon is 0.49 µM; with ACHN renal, 1.5 µM; with HT29 colon it was 1.49 µM; in the assay with NCI-H460 lung, 1.08 µM; in the assay on NCI/ADR-RES ovarian it was 0.577 µM; in the assay on KM12 colon, 2.2 µM. Moreover, the GI50 in the assay on SR leukemia was 1.74 µM; in the assay on SF-295 CNS it was 1.87 µM; with 786-0 renal it was 1.76 µM; in the assay on A498 renal, 1.1 µM. The TGI in the assay on HCT-116 colon was 2.93 µM; in the assay on ACHN renal, 3.27 µM; in the assay with HT29 colon, 9.06 µM; with NCI-H460 lung, 3.82 µM; with NCI/ADR-RES ovarian, 3.15 µM; in the assay with KM12 colon, 14.3 µM. Also, the TGI was greater than 100 µM with SR leukemia, 3.61 µM with SF-295 CNS, 3.89 µM with 786-0 renal and 2.77 µM in the assay on A498 renal.
